Laboratory results as given in patent US12146004B2, “Polymyxin compounds and uses thereof” (priority 2014, dated 2024).
Converted amounts (≈) assume the structure as drawn. Where two headings read alike, the source gives them in different places.

What was measured:
Assay type in all cases: cell-based
Acinetobacter baumannii = test system: Acinetobacter baumannii
Description: (§1) To evaluate the potency and spectrum of the compounds, susceptibility testing was performed against up to nine strains of each of the Gram negative pathogens, Escherichia coli, Pseudomonas aeruginosa, Klebsiella pneumoniae and Acinetobacter baumannii.
(§2) The values in Table 2 are MIC (μg/mL) against strains of E. coli, K. pneumoniae, P. aeruginosa and A. baumanii, including strains which show elevated MICs to Polymyxin.
(§3) The values in Table 2A are MIC (μg/mL).
(§4) The in vitro activity of compounds 26 and C7 (FADDI-02) against resistant bacterial strains was compared. The resistant strains included including Escherichia coli, Pseudomonas aeruginosa, Klebsiella pneumoniae and Acinetobacter baumannii strains. The data is provided in Table 2C, where the strains are identified. The values in Table 2 are MIC (μg/mL).

Escherichia coli = test system: Escherichia coli
Description: as §1, §2, §3, §4

Klebsiella pneumoniae = test system: Klebsiella pneumoniae
Description: as §1, §2, §3, §4

Pseudomonas aeruginosa = test system: Pseudomonas aeruginosa
Description: as §1, §2, §3, §4

Molecule	MIC A. baumanii 053 (Acinetobacter baumannii) [µg/mL]	MIC A. baumanii 056 (Acinetobacter baumannii) [µg/mL]	MIC A. baumanii ATCC BAA-747 (Acinetobacter baumannii) [µg/mL]	MIC E. coli 058 (Escherichia coli) [µg/mL]	MIC E. coli 059 (Escherichia coli) [µg/mL]	MIC E. coli 060 (Escherichia coli) [µg/mL]	MIC E. coli 061 (Escherichia coli) [µg/mL]	MIC E. coli ATCC 25922 (Escherichia coli) [µg/mL]	MIC K. pneumoniae 062 (Klebsiella pneumoniae) [µg/mL]	MIC K. pneumoniae 063 (Klebsiella pneumoniae) [µg/mL]	MIC K. pneumoniae 064 (Klebsiella pneumoniae) [µg/mL]	MIC K. pneumoniae 065 (Klebsiella pneumoniae) [µg/mL]	MIC K. pneumoniae 066 (Klebsiella pneumoniae) [µg/mL]	MIC K. pneumoniae 067 (Klebsiella pneumoniae) [µg/mL]	MIC K. pneumoniae ATCC 4352 (Klebsiella pneumoniae) [µg/mL]	MIC P. aeruginosa 068 (Pseudomonas aeruginosa) [µg/mL]	MIC P. aeruginosa 070 (Pseudomonas aeruginosa) [µg/mL]	MIC P. aeruginosa ATCC 27853 (Pseudomonas aeruginosa) [µg/mL]	other results
2-Aminomethyl-4- methyl pentanoyl polymyxin L-Thr-L-Dap- polymyxin [D-{4-(4- trifluoromethyl) phenyl} Phe]-6]heptapeptide. Isomer 1 [Example 19]																			MIC A. baumanii ATCC BAA-747 (Acinetobacter baumannii; strain ATCC BAA-747): 1 µg/mL; MIC E. coli 058 (Escherichia coli; strain 058): 16 µg/mL; MIC E. coli ATCC 25922 (Escherichia coli; strain ATCC 25922): 1 µg/mL; MIC K. pneumoniae 065 (Klebsiella pneumoniae; strain 065): 16 µg/mL; MIC K. pneumoniae ATCC 4352 (Klebsiella pneumoniae; strain ATCC 4352): 1 µg/mL; MIC P. aeruginosa ATCC 27853 (Pseudomonas aeruginosa; strain ATCC 27853): 2 µg/mL
CC(C)C[C@@H]1NC(=O)[C@@H](CC2CCCCC2)NC(=O)[C@H](CCN)NC(=O)[C@@H](NC(=O)[C@H](CCN)NC(=O)[C@@H](NC(=O)CC(CN)CC2CCCCC2)[C@@H](C)O)CCNC(=O)[C@H]([C@@H](C)O)NC(=O)[C@H](CCN)NC(=O)[C@H](CCN)NC1=O (single isomer, unassigned) [Example 72, 4-amino-3-(cyclohexylmethyl) butanoyl polymyxin [D-cyclohexylalanine]-6 nonapeptide]																			MIC A. baumanii 053 (Acinetobacter baumannii; strain 053): 64 µg/mL (≈ 55.6 µM); MIC A. baumanii 056 (Acinetobacter baumannii; strain 056): 16 µg/mL (≈ 13.9 µM); MIC A. baumanii ATCC BAA-747 (Acinetobacter baumannii; strain ATCC BAA-747): 0.25 µg/mL (≈ 0.217 µM); MIC A. baumanii NCTC 13424 (Acinetobacter baumannii; strain NCTC 13424): 0.125 µg/mL (≈ 0.109 µM); MIC E. coli 058 (Escherichia coli; strain 058): 2 µg/mL (≈ 1.74 µM); MIC E. coli 061 (Escherichia coli; strain 061): 8 µg/mL (≈ 6.95 µM); MIC E. coli ATCC 25922 (Escherichia coli; strain ATCC 25922): 0.25 µg/mL (≈ 0.217 µM); MIC E. coli NCTC 9001 (Escherichia coli; strain NCTC 9001): 0.25 µg/mL (≈ 0.217 µM); MIC K. pneumoniae 063 (Klebsiella pneumoniae; strain 063): 8 µg/mL (≈ 6.95 µM); MIC K. pneumoniae 065 (Klebsiella pneumoniae; strain 065): 0.5 µg/mL (≈ 0.435 µM); MIC K. pneumoniae ATCC 13882 (Klebsiella pneumoniae; strain ATCC 13882): 0.25 µg/mL (≈ 0.217 µM); MIC P. aeruginosa 068 (Pseudomonas aeruginosa; strain 068): 4 µg/mL (≈ 3.48 µM); MIC P. aeruginosa 070 (Pseudomonas aeruginosa; strain 070): 8 µg/mL (≈ 6.95 µM); MIC P. aeruginosa ATCC 27853 (Pseudomonas aeruginosa; strain ATCC 27853): 0.25 µg/mL (≈ 0.217 µM); MIC P. aeruginosa CCUG 59347 (Pseudomonas aeruginosa; strain CCUG 59347): 0.5 µg/mL (≈ 0.435 µM)
CCCCCCCCC1CNCC1C(=O)N[C@H](C(=O)N[C@@H](CCN)C(=O)N[C@H]1CCNC(=O)[C@H]([C@@H](C)O)NC(=O)[C@H](CCN)NC(=O)[C@H](CCN)NC(=O)[C@H](CC(C)C)NC(=O)[C@@H](Cc2ccccc2-c2ccccc2)NC(=O)[C@H](CCN)NC1=O)C(C)O (single isomer, unassigned; isomer 1) [Example 9, trans-4-octylpyrrolidine-3-carbonyl polymyxin [D-(2-phenyl)Phe]-6] nonapeptide. Isomer 1]	64 (≈ 51.3 µM)	32 (≈ 25.6 µM)	1 (≈ 0.801 µM)	2 (≈ 1.6 µM)	2 (≈ 1.6 µM)	4 (≈ 3.2 µM)	8 (≈ 6.41 µM)	1 (≈ 0.801 µM)	64 (≈ 51.3 µM)	>64	64 (≈ 51.3 µM)	8 (≈ 6.41 µM)	32 (≈ 25.6 µM)	>64	0.5 (≈ 0.4 µM)	2 (≈ 1.6 µM)	2 (≈ 1.6 µM)	1 (≈ 0.801 µM)	
CC(C)CC(CN)C(=O)N[C@H](C(=O)N[C@@H](CN)C(=O)N[C@H]1CCNC(=O)[C@H]([C@@H](C)O)NC(=O)[C@H](CCN)NC(=O)[C@H](CCN)NC(=O)[C@H](CC(C)C)NC(=O)[C@@H](Cc2ccc(Br)cc2)NC(=O)[C@H](CCN)NC1=O)C(C)O (single isomer, unassigned; isomer 1) [Example 13, 2-aminomethyl-4-methyl pentanoyl polymyxin L-Thr-L-Dap-polymyxin [D-(4-bromo Phe)]-6]heptapeptide. Isomer 1]	>64	>64	>8	32 (≈ 27.7 µM)	32 (≈ 27.7 µM)	32 (≈ 27.7 µM)	>64	1 (≈ 0.866 µM)	>64	>64	>64	>64	>64	>64	0.5 (≈ 0.433 µM)	32 (≈ 27.7 µM)	64 (≈ 55.4 µM)	0.5 (≈ 0.433 µM)	
CCCCCC/C=C/c1ccc(C[C@H]2NC(=O)[C@H](CCN)NC(=O)[C@@H](NC(=O)[C@H](CN)NC(=O)[C@@H](NC(=O)C3CNCC(CC(C)C)C3)C(C)O)CCNC(=O)[C@H]([C@@H](C)O)NC(=O)[C@H](CCN)NC(=O)[C@H](CCN)NC(=O)[C@H](CC(C)C)NC2=O)cc1 (single isomer, unassigned; isomer 1) [Example 17, (trans-5-(isobutyl-piperidine)-3-carbonyl L-Thr-L-Dap-polymyxin [D-(4-(E)-oct-1-enyl) Phe]-6]heptapeptide Isomer 1]	2 (≈ 1.63 µM)	2 (≈ 1.63 µM)	2 (≈ 1.63 µM)	2 (≈ 1.63 µM)	2 (≈ 1.63 µM)	2 (≈ 1.63 µM)	2 (≈ 1.63 µM)	2 (≈ 1.63 µM)	4 (≈ 3.26 µM)	16 (≈ 13 µM)	8 (≈ 6.52 µM)	4 (≈ 3.26 µM)		32 (≈ 26.1 µM)	2 (≈ 1.63 µM)	4 (≈ 3.26 µM)	4 (≈ 3.26 µM)	2 (≈ 1.63 µM)	

Second part, led by results:

MIC A. baumanii 053 (Acinetobacter baumannii) [µg/mL]	MIC A. baumanii 056 (Acinetobacter baumannii) [µg/mL]	MIC A. baumanii ATCC BAA-747 (Acinetobacter baumannii) [µg/mL]	MIC E. coli 058 (Escherichia coli) [µg/mL]	MIC E. coli 059 (Escherichia coli) [µg/mL]	MIC E. coli 060 (Escherichia coli) [µg/mL]	MIC E. coli 061 (Escherichia coli) [µg/mL]	MIC E. coli ATCC 25922 (Escherichia coli) [µg/mL]	MIC K. pneumoniae 062 (Klebsiella pneumoniae) [µg/mL]	MIC K. pneumoniae 063 (Klebsiella pneumoniae) [µg/mL]	MIC K. pneumoniae 064 (Klebsiella pneumoniae) [µg/mL]	MIC K. pneumoniae 065 (Klebsiella pneumoniae) [µg/mL]	MIC K. pneumoniae 066 (Klebsiella pneumoniae) [µg/mL]	MIC K. pneumoniae 067 (Klebsiella pneumoniae) [µg/mL]	MIC K. pneumoniae ATCC 4352 (Klebsiella pneumoniae) [µg/mL]	MIC P. aeruginosa 068 (Pseudomonas aeruginosa) [µg/mL]	MIC P. aeruginosa 070 (Pseudomonas aeruginosa) [µg/mL]	MIC P. aeruginosa ATCC 27853 (Pseudomonas aeruginosa) [µg/mL]	Molecule	other results
8 (≈ 6.41 µM)	4 (≈ 3.2 µM)	1 (≈ 0.801 µM)	2 (≈ 1.6 µM)	1 (≈ 0.801 µM)	4 (≈ 3.2 µM)	8 (≈ 6.41 µM)	1 (≈ 0.801 µM)	16 (≈ 12.8 µM)	32 (≈ 25.6 µM)	8 (≈ 6.41 µM)	1 (≈ 0.801 µM)	4 (≈ 3.2 µM)	32 (≈ 25.6 µM)	1 (≈ 0.801 µM)	2 (≈ 1.6 µM)	2 (≈ 1.6 µM)		CCCCCCCCC1CNCC1C(=O)N[C@H](C(=O)N[C@@H](CCN)C(=O)N[C@H]1CCNC(=O)[C@H]([C@@H](C)O)NC(=O)[C@H](CCN)NC(=O)[C@H](CCN)NC(=O)[C@H](CC(C)C)NC(=O)[C@@H](Cc2ccc(-c3ccccc3)cc2)NC(=O)[C@H](CCN)NC1=O)C(C)O (single isomer, unassigned; isomer 1) [Example 7, trans-4-octylpyrrolidine-3-carbonyl polymyxin [D-(4-phenyl)Phe]-6] nonapeptide. Isomer 1]	
>64	32 (≈ 26.8 µM)	2 (≈ 1.67 µM)	16 (≈ 13.4 µM)	32 (≈ 26.8 µM)	16 (≈ 13.4 µM)	64 (≈ 53.5 µM)	1 (≈ 0.837 µM)	>64	>64	>64	64 (≈ 53.5 µM)	>64	>64	1 (≈ 0.837 µM)	8 (≈ 6.69 µM)	16 (≈ 13.4 µM)	1 (≈ 0.837 µM)	CC(C)CC1CNCC(C(=O)N[C@H](C(=O)N[C@@H](CN)C(=O)N[C@H]2CCNC(=O)[C@H]([C@@H](C)O)NC(=O)[C@H](CCN)NC(=O)[C@H](CCN)NC(=O)[C@H](CC(C)C)NC(=O)[C@@H](Cc3ccc(Br)cc3)NC(=O)[C@H](CCN)NC2=O)C(C)O)C1 (single isomer, unassigned; isomer 1) [Example 11, (trans-5-(isobutyl-piperidine)-3-carbonyl L-Thr-L-Dap-polymyxin [D-(4-bromo Phe)]-6] hept apeptide Isomer 1]	
>64	>64	8 (≈ 6.94 µM)	32 (≈ 27.8 µM)	16 (≈ 13.9 µM)	32 (≈ 27.8 µM)	64 (≈ 55.5 µM)	1 (≈ 0.868 µM)	>64	>64	>64	64 (≈ 55.5 µM)	64 (≈ 55.5 µM)	>64	0.5 (≈ 0.434 µM)	16 (≈ 13.9 µM)	32 (≈ 27.8 µM)	1 (≈ 0.868 µM)	CC(C)CC(CN)C(=O)N[C@H](C(=O)N[C@@H](CN)C(=O)N[C@H]1CCNC(=O)[C@H]([C@@H](C)O)NC(=O)[C@H](CCN)NC(=O)[C@H](CCN)NC(=O)[C@H](CC(C)C)NC(=O)[C@@H](Cc2ccc(-c3ccccc3)cc2)NC(=O)[C@H](CCN)NC1=O)C(C)O (single isomer, unassigned; isomer 1) [Example 15, 2-aminomethyl-4-mehtly pentanoyl polymyxin L-Thr-L-Dap-polymyxin [D-(4-phenyl Phe)]-6]heptapeptide. Isomer 1]	
